# According to PubChem BioAssay (NCI):
#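 Step 1: Grow cells in 96-well plates. Step 2: Expose to compound for 48 hours at 5 concentrations. Step 3: Interpolate endpoints linearly; if unreached, use highest concentration. Definition used: TGI = concentration required for complete inhibition of growth.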
# Assays:
# Test in all cases: NCI-60 cell line screen, 48 h
# SF-539 CNS = test system: SF-539 CNS
# T-47D breast = test system: T-47D breast
# OVCAR-3 ovarian = test system: OVCAR-3 ovarian
# SNB-75 CNS = test system: SNB-75 CNS
# OVCAR-5 ovarian = test system: OVCAR-5 ovarian
# K-562 leukemia = test system: K-562 leukemia
# UO-31 renal = test system: UO-31 renal
# A549 NSCLC = test system: A549 NSCLC
# PC-3 prostate = test system: PC-3 prostate
# SF-295 CNS = test system: SF-295 CNS
# MDA-MB-231 breast = test system: MDA-MB-231 breast
# BT-549 breast = test system: BT-549 breast
# UACC-257 melanoma = test system: UACC-257 melanoma
# EKVX NSCLC = test system: EKVX NSCLC
# HCC-2998 colon = test system: HCC-2998 colon
# SK-MEL-28 melanoma = test system: SK-MEL-28 melanoma
# NCI-H460 lung = test system: NCI-H460 lung
# SF-268 CNS = test system: SF-268 CNS
# MCF7 breast = test system: MCF7 breast
# COLO 205 colon = test system: COLO 205 colon
# LOX IMVI melanoma = test system: LOX IMVI melanoma
# CCRF-CEM leukemia = test system: CCRF-CEM leukemia
# MDA-N = test system: MDA-N
# U251 CNS = test system: U251 CNS
# MDA-MB-435 = test system: MDA-MB-435
# HT29 colon = test system: HT29 colon
# IGROV1 ovarian = test system: IGROV1 ovarian
# MOLT-4 leukemia = test system: MOLT-4 leukemia
# OVCAR-8 ovarian = test system: OVCAR-8 ovarian
# KM12 colon = test system: KM12 colon
# DU-145 prostate = test system: DU-145 prostate
# RPMI-8226 leukemia = test system: RPMI-8226 leukemia
# SK-MEL-5 melanoma = test system: SK-MEL-5 melanoma
# MALME-3M melanoma = test system: MALME-3M melanoma
# HCT-15 colon = test system: HCT-15 colon
# TK-10 renal = test system: TK-10 renal
# HS 578T breast = test system: HS 578T breast
# SNB-19 CNS = test system: SNB-19 CNS
# NCI-H522 lung = test system: NCI-H522 lung
# CAKI-1 renal = test system: CAKI-1 renal
# M14 melanoma = test system: M14 melanoma
# NCI/ADR-RES ovarian = test system: NCI/ADR-RES ovarian
# SW-620 colon = test system: SW-620 colon
# SK-MEL-2 melanoma = test system: SK-MEL-2 melanoma
# 786-0 renal = test system: 786-0 renal
# SN12C renal = test system: SN12C renal
# HOP-62 NSCLC = test system: HOP-62 NSCLC
# A498 renal = test system: A498 renal
# NCI-H23 lung = test system: NCI-H23 lung
# UACC-62 melanoma = test system: UACC-62 melanoma
# SK-OV-3 ovarian = test system: SK-OV-3 ovarian
# ACHN renal = test system: ACHN renal
# NCI-H226 lung = test system: NCI-H226 lung
# HOP-92 NSCLC = test system: HOP-92 NSCLC
# HCT-116 colon = test system: HCT-116 colon
# OVCAR-4 ovarian = test system: OVCAR-4 ovarian
# RXF 393 renal = test system: RXF 393 renal
# HL-60(TB) leukemia = test system: HL-60(TB) leukemia
compound,measurement,setting,value
C=C1CC(Cn2ccc(=O)[nH]c2=O)(c2ccc(-c3ccccc3)cc2)OC1=O (stereo not given),TGI,SF-539 CNS,8.89 µM
same,TGI,T-47D breast,6.45 µM
same,TGI,OVCAR-3 ovarian,4.03 µM
same,TGI,SNB-75 CNS,26.7 µM
same,TGI,OVCAR-5 ovarian,24.7 µM
same,TGI,K-562 leukemia,1.53 µM
same,TGI,UO-31 renal,16.5 µM
same,TGI,A549 NSCLC,24.9 µM
same,TGI,PC-3 prostate,7.52 µM
same,TGI,SF-295 CNS,25.3 µM
same,TGI,MDA-MB-231 breast,5.8 µM
same,TGI,BT-549 breast,3.73 µM
same,TGI,UACC-257 melanoma,3.88 µM
same,TGI,EKVX NSCLC,29.9 µM
same,TGI,HCC-2998 colon,4.12 µM
same,TGI,SK-MEL-28 melanoma,5.34 µM
same,TGI,NCI-H460 lung,28.4 µM
same,TGI,SF-268 CNS,46.3 µM
same,TGI,MCF7 breast,2.67 µM
same,TGI,COLO 205 colon,0.338 µM
same,TGI,LOX IMVI melanoma,1.07 µM
same,TGI,CCRF-CEM leukemia,1.2 µM
same,TGI,MDA-N,3.5 µM
same,TGI,U251 CNS,25 µM
same,TGI,MDA-MB-435,6.12 µM
same,TGI,HT29 colon,3.27 µM
same,TGI,IGROV1 ovarian,2.64 µM
same,TGI,MOLT-4 leukemia,5.26 µM
same,TGI,OVCAR-8 ovarian,11.1 µM
same,TGI,KM12 colon,12.9 µM
same,TGI,DU-145 prostate,2.88 µM
same,TGI,RPMI-8226 leukemia,1.29 µM
same,TGI,SK-MEL-5 melanoma,2.39 µM
same,TGI,MALME-3M melanoma,3.42 µM
same,TGI,HCT-15 colon,3.72 µM
same,TGI,TK-10 renal,2.32 µM
same,TGI,HS 578T breast,22.9 µM
same,TGI,SNB-19 CNS,34 µM
same,TGI,NCI-H522 lung,2.39 µM
same,TGI,CAKI-1 renal,2.7 µM
same,TGI,M14 melanoma,3.58 µM
same,TGI,NCI/ADR-RES ovarian,4.64 µM
same,TGI,SW-620 colon,0.941 µM
same,TGI,SK-MEL-2 melanoma,4.55 µM
same,TGI,786-0 renal,1.67 µM
same,TGI,SN12C renal,21.3 µM
same,TGI,HOP-62 NSCLC,40.2 µM
same,TGI,A498 renal,16.1 µM
same,TGI,NCI-H23 lung,8.4 µM
same,TGI,UACC-62 melanoma,1.88 µM
same,TGI,SK-OV-3 ovarian,21.1 µM
same,TGI,ACHN renal,3.25 µM
same,TGI,NCI-H226 lung,13.6 µM
same,TGI,HOP-92 NSCLC,2.62 µM
same,TGI,HCT-116 colon,0.892 µM
CC1CC(=O)Nc2cc(Cl)ccc2N1C(=O)C1CC1 (stereo not given),TGI,SF-539 CNS,> 100 µM
same,TGI,T-47D breast,> 100 µM
same,TGI,OVCAR-3 ovarian,> 100 µM
same,TGI,OVCAR-5 ovarian,> 100 µM
same,TGI,K-562 leukemia,> 100 µM
same,TGI,UO-31 renal,> 100 µM
same,TGI,A549 NSCLC,> 100 µM
same,TGI,PC-3 prostate,> 100 µM
same,TGI,SF-295 CNS,> 100 µM
same,TGI,MDA-MB-231 breast,> 100 µM
same,TGI,BT-549 breast,> 100 µM
same,TGI,UACC-257 melanoma,> 100 µM
same,TGI,EKVX NSCLC,> 100 µM
same,TGI,HCC-2998 colon,> 100 µM
same,TGI,SK-MEL-28 melanoma,> 100 µM
same,TGI,NCI-H460 lung,> 100 µM
same,TGI,SF-268 CNS,> 100 µM
same,TGI,MCF7 breast,> 100 µM
same,TGI,COLO 205 colon,> 100 µM
same,TGI,LOX IMVI melanoma,> 100 µM
same,TGI,CCRF-CEM leukemia,> 100 µM
same,TGI,MDA-N,> 100 µM
same,TGI,U251 CNS,> 100 µM
same,TGI,OVCAR-4 ovarian,> 100 µM
same,TGI,MDA-MB-435,> 100 µM
same,TGI,HT29 colon,> 100 µM
same,TGI,IGROV1 ovarian,> 100 µM
same,TGI,MOLT-4 leukemia,> 100 µM
same,TGI,OVCAR-8 ovarian,> 100 µM
same,TGI,RXF 393 renal,> 100 µM
same,TGI,KM12 colon,> 100 µM
same,TGI,DU-145 prostate,> 100 µM
same,TGI,RPMI-8226 leukemia,> 100 µM
same,TGI,SK-MEL-5 melanoma,> 100 µM
same,TGI,MALME-3M melanoma,> 100 µM
same,TGI,HCT-15 colon,> 100 µM
same,TGI,TK-10 renal,> 100 µM
same,TGI,HS 578T breast,> 100 µM
same,TGI,SNB-19 CNS,> 100 µM
same,TGI,NCI-H522 lung,> 100 µM
same,TGI,CAKI-1 renal,> 100 µM
same,TGI,M14 melanoma,> 100 µM
same,TGI,HL-60(TB) leukemia,> 100 µM
same,TGI,SW-620 colon,> 100 µM
same,TGI,SK-MEL-2 melanoma,> 100 µM
same,TGI,786-0 renal,> 100 µM
same,TGI,SN12C renal,> 100 µM
same,TGI,HOP-62 NSCLC,> 100 µM
same,TGI,A498 renal,> 100 µM
same,TGI,NCI-H23 lung,> 100 µM
same,TGI,SK-OV-3 ovarian,> 100 µM
same,TGI,ACHN renal,> 100 µM
same,TGI,NCI-H226 lung,> 100 µM
same,TGI,HOP-92 NSCLC,> 100 µM
same,TGI,HCT-116 colon,> 100 µM
